Measured values as given in patent US9273036B2, “Oxindole derivatives carrying an oxetane substituent and use thereof for treating vasopressine-related diseases” (AbbVie Deutschland GmbH & Co. KG, priority 2013, dated 2016).

Target: T1, human vasopressin V1b receptor (Homo sapiens, UniProt P47901)
T1 sequence (P47901 1-424): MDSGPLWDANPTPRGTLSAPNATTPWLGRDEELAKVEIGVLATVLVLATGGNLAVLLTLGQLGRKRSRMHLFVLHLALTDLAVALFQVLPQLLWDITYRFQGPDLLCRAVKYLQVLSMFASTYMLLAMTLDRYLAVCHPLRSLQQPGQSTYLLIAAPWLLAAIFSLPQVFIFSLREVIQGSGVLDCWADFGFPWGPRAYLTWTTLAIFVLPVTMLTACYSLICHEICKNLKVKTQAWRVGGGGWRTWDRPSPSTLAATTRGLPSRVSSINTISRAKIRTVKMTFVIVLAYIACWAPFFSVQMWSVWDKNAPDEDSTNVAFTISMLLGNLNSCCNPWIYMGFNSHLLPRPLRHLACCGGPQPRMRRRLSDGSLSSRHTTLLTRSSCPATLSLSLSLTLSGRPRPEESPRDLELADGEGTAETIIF
Experiment: biochemical

Row | SMILES | Ki [µM]
1 | CCOc1ncccc1[C@]1(NC(=O)N2CCN(C3CCN(C4COC4)CC3)CC2)C(=O)N(S(=O)(=O)c2ccc(OC)cc2OC)c2ccc(C#N)cc21 [Example 1, (S)—N-(5-cyano-1-((2,4-dimethoxyphenyl)sulfonyl)-3-(2-ethoxypyridin-3-yl)-2-oxoindolin-3-yl)-4-(1-(oxetan-3-yl)piperidin-4-yl)piperazine-1-carboxamide] | < 0.001
2 | CCOc1ncccc1C1(NC(=O)N2CCN(C3CCN(C4COC4)CC3)CC2)C(=O)N(S(=O)(=O)c2ccc(OC)cc2)c2ccc(C#N)cc21 (centres unmarked) [Example 3, N-(5-cyano-3-(2-ethoxypyridin-3-yl)-1-((4-methoxyphenyl)sulfonyl)-2-oxoindolin-3-yl)-4-(1-(oxetan-3-yl)piperidin-4-yl)piperazine-1-carboxamide] | 0.001 to 0.01
3 | CCOc1ncccc1C1(NC(=O)N2CCN(C3CCN(C4COC4)CC3)CC2)C(=O)N(S(=O)(=O)c2ccccc2)c2ccc(C#N)cc21 (centres unmarked) [Example 4, N-(5-cyano-3-(2-ethoxypyridin-3-yl)-2-oxo-1-(phenylsulfonyl)indolin-3-yl)-4-(1-(oxetan-3-yl)piperidin-4-yl)piperazine-1-carboxamide] | 0.01 to 0.1
4 | CCOc1ncccc1[C@]1(NC(=O)N2CCN(C3CCN(C4COC4)CC3)CC2)C(=O)N(S(=O)(=O)c2ccc(C#N)cc2)c2ccc(C#N)cc21 [Example 5, (S)—N-(5-cyano-1-((4-cyanophenyl)sulfonyl)-3-(2-ethoxypyridin-3-yl)-2-oxoindolin-3-yl)-4-(1-(oxetan-3-yl)piperidin-4-yl)piperazine-1-carboxamide] | 0.001 to 0.01
5 | CCOc1ncccc1[C@]1(NC(=O)N2CCN(C3CCN(C4COC4)CC3)CC2)C(=O)N(S(=O)(=O)c2ccc(OC)cc2F)c2ccc(C#N)cc21 [Example 6, (S)—N-(5-cyano-3-(2-ethoxypyridin-3-yl)-1-((2-fluoro-4-methoxyphenyl)sulfonyl)-2-oxoindolin-3-yl)-4-(1-(oxetan-3-yl)piperidin-4-yl)piperazine-1-carboxamide] | 0.001 to 0.01
6 | CCOc1ncccc1[C@]1(NC(=O)N2CCN(C3CCN(C4COC4)CC3)CC2)C(=O)N(S(=O)(=O)c2cc(F)c(OC)cc2OC)c2ccc(C#N)cc21 [Example 8, (S)—N-(5-cyano-3-(2-ethoxypyridin-3-yl)-1-((5-fluoro-2,4-dimethoxyphenyl)sulfonyl)-2-oxoindolin-3-yl)-4-(1-(oxetan-3-yl)piperidin-4-yl)piperazine-1-carboxamide] | 0.001 to 0.01
7 | CCOc1ncccc1[C@]1(NC(=O)N2CCN(C3CCN(C4COC4)CC3)CC2)C(=O)N(S(=O)(=O)c2ccc(OC)cc2OC)c2cc(F)c(F)cc21 [Example 9, (S)—N-(1-((2,4-dimethoxyphenyl)sulfonyl)-3-(2-ethoxypyridin-3-yl)-5,6-difluoro-2-oxoindolin-3-yl)-4-(1-(oxetan-3-yl)piperidin-4-yl)piperazine-1-carboxamide] | 0.001 to 0.01
8 | CCOc1ncccc1[C@]1(NC(=O)N2CCN(C3CCN(C4COC4)CC3)CC2)C(=O)N(S(=O)(=O)c2ccc(OC)cc2OC)c2ccc(Cl)cc21 [Example 10, (S)—N-(5-chloro-1-((2,4-dimethoxyphenyl)sulfonyl)-3-(2-ethoxypyridin-3-yl)-2-oxoindolin-3-yl)-4-(1-(oxetan-3-yl)piperidin-4-yl)piperazine-1-carboxamide] | < 0.001
9 | CCOc1ncccc1[C@]1(NC(=O)N2CCC(N3CCN(C4COC4)CC3)CC2)C(=O)N(S(=O)(=O)c2ccc(C#N)cc2)c2ccc(C#N)cc21 [Example 12, (S)—N-(5-cyano-1-((4-cyanophenyl)sulfonyl)-3-(2-ethoxypyridin-3-yl)-2-oxoindolin-3-yl)-4-(4-(oxetan-3-yl)piperazin-1-yl)piperidine-1-carboxamide] | 0.01 to 0.1

More lines, now with the values ahead:

Row | Ki [µM] | SMILES
10 | 0.01 to 0.1 | CCOc1ncccc1[C@]1(NC(=O)N2CCC(N3CCN(C4COC4)CC3)CC2)C(=O)N(S(=O)(=O)c2ccc(OC)cc2)c2ccc(C#N)cc21 [Example 13, (S)—N-(5-cyano-3-(2-ethoxypyridin-3-yl)-1-((4-methoxyphenyl)sulfonyl)-2-oxoindolin-3-yl)-4-(4-(oxetan-3-yl)piperazin-1-yl)piperidine-1-carboxamide]
11 | 0.001 to 0.01 | CCOc1ncccc1[C@]1(NC(=O)N2CCC(N3CCN(C4COC4)CC3)CC2)C(=O)N(S(=O)(=O)c2ccc(OC)cc2OC)c2ccc(Cl)cc21 [Example 14, (S)—N-(5-chloro-1-((2,4-dimethoxyphenyl)sulfonyl)-3-(2-ethoxypyridin-3-yl)-2-oxoindolin-3-yl)-4-(4-(oxetan-3-yl)piperazin-1-yl)piperidine-1-carboxamide]
12 | 0.001 to 0.01 | COc1ccc(S(=O)(=O)N2C(=O)C(NC(=O)N3CCN(C4CCN(C5COC5)CC4)CC3)(c3cccnc3OC)c3cc(C#N)ccc32)c(OC)c1 (centres unmarked) [Example 15, N-(5-cyano-1-((2,4-dimethoxyphenyl)sulfonyl)-3-(2-methoxypyridin-3-yl)-2-oxoindolin-3-yl)-4-(1-(oxetan-3-yl)piperidin-4-yl)piperazine-1-carboxamide]
13 | 0.01 to 0.1 | CCOc1ncccc1[C@]1(NC(=O)N2CCC(N3C[C@@H]4C[C@H]3CN4C3COC3)CC2)C(=O)N(S(=O)(=O)c2ccc(OC)cc2OC)c2ccc(C#N)cc21 [Example 17, N—((S)-5-cyano-1-((2,4-dimethoxyphenyl)sulfonyl)-3-(2-ethoxypyridin-3-yl)-2-oxoindolin-3-yl)-4-((1S,4S)-5-(oxetan-3-yl)-2,5-diazabicyclo[2.2.1]heptan-2-yl)piperidine-1-carboxamide]
14 | 0.01 to 0.1 | CCOc1ncccc1[C@]1(NC(=O)N2CCN(C3CCN(C4COC4)CC3)CC2)C(=O)N(S(=O)(=O)c2ccc(OC)c(C)c2C)c2ccc(C#N)cc21 [Example 18, (S)—N-(5-cyano-3-(2-ethoxypyridin-3-yl)-1-((4-methoxy-2,3-dimethylphenyl)sulfonyl)-2-oxoindolin-3-yl)-4-(1-(oxetan-3-yl)piperidin-4-yl)piperazine-1-carboxamide]
